How the values were obtained:
[1] = tested on: a variety of test species; assay: Post-emergence herbicidal activity (Example 8b, Table 3); format: in vivo; conditions: application post-emergence, rate 1000 g/ha, evaluated after 13 days, scale 0-5; for Herbicidal damage score, ABUTH: Abutilon theophrasti; for Herbicidal damage score, ALOMY: Alopecurus myosuroides; for Herbicidal damage score, AMARE: Amaranthus retroflexus; for Herbicidal damage score, ECHCG: Echinochloa crus-galli; for Herbicidal damage score, SETFA: Setaria faberi; for Herbicidal damage score, ZEAMX: Zea mays
In short: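 Damage rating 0 (none) to 5 (total), assessed 13 days after spraying. Plants received the compound in acetone/water 50:50 with 0.5% Tween 20 at 8 days post-sowing, then were kept at 24/16 °C, 14 h photoperiod, 65% RH.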

[2] = tested on: a variety of test species; assay: Pre-emergence herbicidal activity (Example 8a, Table 2); format: in vivo; parameters: key: 0 = no damage to plant, 5 = total damage to plant; conditions: application pre-emergence, rate 1000 g/ha, evaluated after 13 days
In short: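 Damage rated 13 days post-treatment on a 0-5 scale, 5 meaning total plant damage. Pots were sprayed pre-emergence, one day after sowing, with an acetone/water-derived aqueous spray containing 0.5% Tween 20. Plants grew under 14 h light, 65% humidity, 24/16 °C, watered twice daily.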

Compound | Herbicidal damage score, ABUTH [1] | Herbicidal damage score, ALOMY [1] | Herbicidal damage score, AMARE [1] | Herbicidal damage score, ECHCG [1] | Herbicidal damage score, SETFA [1] | Herbicidal damage score, ZEAMX [1] | Pre-emergence herbicidal activity, damage score ABUTH [2] | Pre-emergence herbicidal activity, damage score ALOMY [2] | Pre-emergence herbicidal activity, damage score AMARE [2] | Pre-emergence herbicidal activity, damage score ECHCG [2] | Pre-emergence herbicidal activity, damage score SETFA [2] | Pre-emergence herbicidal activity, damage score ZEAMX [2]
CC1=C(Cl)C(=O)N(c2cc(C(F)(F)C(F)(F)F)n(C)n2)C1O (centres unmarked) [Compound B4] | 5 | 5 | 5 | 5 | 5 | 3 | 5 | 4 | 5 | 5 | 5 | 2
CC1=C(Cl)C(=O)N(c2cc3n(n2)CCC3(C)C)C1O (centres unmarked) [Compound G2] | 5 | 5 | 5 | 5 | 5 | 4 | 5 | 4 | 5 | 5 | 5 | 4
CC(C)=CCc1cc(N2C(=O)C(Cl)=C(C)C2O)nn1C (centres unmarked) [Compound B10, 4-chloro-2-hydroxy-3-methyl-1-[1-methyl-5-(3-methylbut-2-enyl)pyrazol-3-yl]-2H-pyrrol-5-one] | 3 | 0 | 0 | 2 | 5 | 2 | 0 | 0 | – | 0 | 0 | 0
COC1=C(C)C(O)N(c2cc(C(C)(C)C)n(C)n2)C1=O (centres unmarked) [Compound H2] | – | – | – | – | – | 4 | – | 4 | – | – | – | 4
CCn1nc(N2C(=O)C(Cl)=C(C)C2O)c2c1C(C)(C)CC2 (centres unmarked) [Compound E2] | 5 | 5 | 5 | 5 | 5 | 5 | 5 | 3 | 5 | 5 | 5 | 3
CC1=C(Cl)C(=O)N(c2cc(Cl)n(C)n2)C1O (centres unmarked) [Compound B18] | 5 | 5 | 5 | 5 | 5 | 5 | 4 | 3 | 5 | 4 | 5 | 2
CC1=C(Cl)C(=O)N(c2cc(C(F)(F)F)[nH]n2)C1O (centres unmarked) [Compound A2] | 5 | 4 | 3 | 4 | 5 | 1 | 5 | 0 | 5 | 3 | 0 | 2
CC1=C(Br)C(=O)N(c2cc3n(n2)CCS(=O)(=O)C3(C)C)C1O (centres unmarked) [Compound M4] | 5 | 4 | 5 | 5 | 4 | 0 | 5 | 2 | 5 | 2 | 2 | 1
CC1=C(Br)C(=O)N(c2nn(C)c3c2CCC3(C)C)C1O (centres unmarked) [Compound N1] | 5 | 5 | 5 | 5 | 5 | 4 | 5 | 4 | 5 | 4 | 5 | 4
CSc1cc(N2C(=O)C(Cl)=C(C)C2O)nn1C (centres unmarked) [Compound B36] | 5 | 4 | 5 | 5 | 5 | 5 | 5 | 3 | 5 | 5 | 5 | 2
COC1=C(C)C(O)N(c2cc3n(n2)CCCC3(C)C)C1=O (centres unmarked) [Compound R2] | 5 | 5 | 5 | 5 | 5 | 4 | 5 | 4 | 5 | 5 | 5 | 4
CC1=C(Cl)C(=O)N(c2cc(Cl)n(C)n2)C1O (centres unmarked) [Compound B9] | 5 | 5 | 5 | 5 | 5 | 5 | 4 | 3 | 5 | 4 | 5 | 2
